Tested on: patterned hPSC-CMs
Test: beta-adrenergic stimulation of micropatterned hPSC-CMs with isoproterenol (contraction, digital image correlation)
Type: cell-based, human
Conditions: patterned CMs on 10 kPa PDMS, 1 μM isoproterenol
Description: In this Example, cardiomyocytes were differentiated from the 19-9-11 iPSC line and purified using lactate media. 10 kPa PDMS substrates mimicking the elasticity of the healthy myocardium were made by blending together commercially available Sylgard 184 and 527. […] Statistical analyses were done using one-way ANOVA with post hoc Tukey test.

`CC(C)NCC(O)c1ccc(O)c(O)c1` (centres unmarked) [isoproterenol] was tested, and the rate of contraction was “increase in the rate of contraction” and the “amplitude of contraction (x-displacement)” value (versus baseline normal contraction) was “amplitude of contraction also increased from baseline”.
